Where a name gives a salt, the structure may show the parent alone.
Columns and labels:
[1] = Pharmacokinetic profile of cannabinoid sulfate esters compared to CBD; conditions: for Cmax / Tmax / half-life: plasma
Description: The PK profile of certain exemplary cannabinoid sulfate esters, including the half-life (T1/2), maximum plasma concentration (Cmax), and time to reach Cmax (Tmax), is shown compared to CBD in the table below.

[2] = pH 7.4; cited from earlier work
[3] = tested on: intraocular pressure; conditions: normotensive rabbit; cited from earlier work

Structure (SMILES) | Cmax [1] | Tmax [1] | half-life [1] | T1/2 ([1]; half-life) | Cmax ([1]; Cmax, maximum plasma concentration) | increase of aqueous solubility over the parent endocannabinoid [2] | intraocular pressure [3]
C=C(C)[C@@H]1CCC(C)=C[C@H]1c1c(O)cc(CCCCC)cc1OS(=O)(=O)O [CBD sulfate morpholinium salt, morpholin-4-ium (1′R,2′R)-6-hydroxy-5′-methyl-4-pentyl-2′-(prop-1-en-2-yl)-1′,2′,3′,4′-tetrahydro-[1,1′-biphenyl]-2-yl sulfate] | 10 ng/mL | 1 h | 1960 min | – | – | – | –
C=C(C)[C@@H]1CCC(C)=C[C@H]1c1c(O)cc(CCCCC)cc1OS(=O)(=O)O [CBD sulfate piperazinium salt, piperazin-1-ium (1′R,2′R)-6-hydroxy-5′-methyl-4-pentyl-2′-(prop-1-en-2-yl)-1′,2′,3′,4′-tetrahydro-[1,1′-biphenyl]-2-yl sulfate] | – | 1 h | – | 3.0 h | 19 ng/mL | – | –
C=C(C)[C@@H]1CCC(C)=C[C@H]1c1c(O)cc(CCCCC)cc1OS(=O)(=O)[O-].[Na+] [CBD sulfate sodium salt, sodium (1′R,2′R)-6-hydroxy-5′-methyl-4 pentyl-2′-(prop-1-en-2-yl)-1′,2′,3′,4′-tetrahydro-[1,1′-biphenyl]-2-yl sulfate] | 12 ng/mL | 1 h | 174 min | – | – | – | –
C=C(C)[C@@H]1CCC(C)=C[C@H]1c1c(O)cc(CCCCC)cc1O [CBD, cannabidiol, reference compound] | 4.8 ng/mL | 0.5 h | 234 min | – | – | – | –
CCCCC/C=C\C/C=C\C/C=C\C/C=C\CCCC(=O)NCCOP(=O)(O)O [phosphate ester pro-drug of anandamide] | – | – | – | – | – | > 16 500 fold | reduced the intraocular pressure
